Data published in patent US6982252B2, “Inhibition of vacuolar proton ATPase activity and/or the modulation of acidic organelle function sensitizes cells to radiation, chemotherapy and biological agents” (Memorial Sloan-Kettering Cancer Center, priority 2000, dated 2006).
“And” between values parts separate entries of the source, which are not always exact repeats. Identical values can stand only once. Marks after values point to notes of the source that are not given here.

How the values were obtained:
[1] = test system: acidic vesicular organelles (AVO) in MCF-7 cells; test: Mean red/green fluorescence ratio in acridine orange stained cells by flow cytometry; type: cell-based, human
Method: bFGF was added to cultures of MCF-7 cells at 10 ng/ml for 48 hours. TNF was added at 2.3 nM for 48 hours. PMA was added for 1 hour at a concentration of 30 nM, followed by rinsing of the cells and incubation for an additional 48 hours.
Cell staining was performed according to standard techniques (Arvan et al., 1984, J. Bio. Chem. 259:13567-13572; Mains and May, 1988, J. Biol. Chem. 263:7887-7894; Traganos and Darzynkiewicz, Methods in Cell Biology 41:185-194, Academic Press). Acridine orange (Polysciences, Warrington, Pa.) was added to a final concentration of 1 μg/ml for 15 minutes. Bafilomycin A1 (Sigma Chemical Co., St. Louis, Mo.) was dissolved in DMSO and added to the cells 30 minutes prior to the addition of acridine orange. LysoSensor Blue DND-167 (Molecular Probes, Eugene, Oreg.) at a final concentration of 10 μM was added for 8 minutes. Pictures were obtained with a fluorescence microscope (Olympus BH-2 RFCA), equipped with a mercury-100 W lamp, 490 nm band pass blue excitation filters, 500 nm dichroic mirror and a 515 nm long pass barrier filter. Images of control and irradiated cells were recorded on Kodak Elite II 100 ASA film for color slides by 4 seconds exposure.
In acridine orange stained cells the cytoplasm and nucleolus fluoresce bright green and dim red, while acidic compartments fluoresce bright red (Mains and May, 1988, J. Biol. Chem. 263:7887-7894; Traganos and Darzynkiewicz, Methods in Cell Biology Vol. 41, pp. 185-194, Academic Press). The intensity of the red fluorescence is proportional to the degree of acidity and/or the volume of the cellular acidic compartment. Therefore, by comparing the mean red/green fluorescence ratio within different cell populations, a change in the degree of acidity and/or the fractional volume of the cellular acidic compartment could be measured. Cells were stained with acridine orange for […], removed from the plate with trypsin-EDTA and collected in phenol red-free growth medium. Green (510-530 nm) and red (>650 nm) Fluoresence emission from 10,000 cells illuminated with blue (488 nm) excitation light was measured with a FACSCalibur from Becton Dickinson (San Jose, Calif.) using CellQuest software. The red to green fluorescence ratio for individual cells was calculated using FlowJo software (TREE STAR, Inc., San Carlos, Calif.). To control for possible effect of trypsinization on the measured red to green fluorescence ratio, the ratios were compared by flow cytometry with those obtained with a Laser Scanning Microscope (LSM510 from Zeiss). Stained cells, grown on cover glass, were illuminated with a 488 nm argon laser beam. The red (>650 nm) to green (505-545 nm) fluorescence ratio of an entire image was obtained using software LSM 510 version 2.01 SP2. These measurements yielded similar results to those obtained with flow cytometry. All determinations of red to green fluorescence ratio reported in this section were obtained via flow cytometry.

[2] = test system: AVO in MCF-7 cells; test: Vital staining with acridine orange, fluorescence microscopy; type: cell-based, human; conditions: pre-incubation with 300 μM chloroquine
Method: Acridine orange (Polysciences, Warrington, Pa.) was added to a final concentration of 1 μg/ml for 15 minutes. […] Pictures were obtained with a fluorescence microscope (Olympus BH-2 RFCA), equipped with a mercury-100 W lamp, 490 nm band pass blue excitation filters, 500 nm dichroic mirror and a 515 nm long pass barrier filter. Images of control and irradiated cells were recorded on Kodak Elite II 100 ASA film for color slides by 4 seconds exposure.

[3] = test system: AVO-EM in irradiated MCF-7 cells; test: Electron microscopy of AVO-EM; type: cell-based, human; conditions: 3-methyladenine 5 mM; 10 Gy; without it 94%
Method: Cell processing for electron microscopy and staining with N-(3-(2,4-dinitrophenyl)-N-(3-aminopropyl))methylamine dihydrochloride (DAMP; Molecular Probes, Eugene, Oreg.) was performed as set forth in Anderson et al., 1984, Proc. Natl. Acad. Sci. U.S.A. 81:4838-4842 and Dunn et al., 1990, J. Cell Biol. 110:1935-1945. The fraction of the cytoplasmic volume occupied by AVO (fractional volume of AVO) was quantified from electron micrographs according to Dunn and Lenk et al., (Dunn et al., 1990, J. Cell Biol. 110:1935-1945; Lenk et al., 1992, J. Cell Biol. 118:301-308). Digital Images of the micrographs were obtained using an Epson ES-1200S flat bed scanner with Adobe Photoshop version 5. The fractional volume was calculated with Image Pro Plus Version 3 and expressed as a percentage of the total cytoplasmic volume.

[4] = test system: MCF-7 (human breast adenocarcinoma); test: Clonogenic survival (surviving fraction) of MCF-7 cells after radiation or chemotherapeutic agent; type: cell-based; conditions: for Surviving Fraction 100 nM Adriamycin / Surviving Fraction: Table 16
Method: (§1) MCF-7 (human breast adenocarcinoma), LoVo (human colon adenocarcinoma) and LNCaP (human prostate carcinoma) were obtained from the American Type Culture Collection. Cells were maintained as described in Paglin et al., 1997, Biochem. Biophs. Res. Comm. 237:678-684). Irradiation was carried out 48 hours post-plating (T0) at room temperature using a Cs-137 irradiator (Sheperd Mark-I, model 68, SN643) at a dose rate of 2.43-2.32 Gy/min. Bovine aortic endothelial cells were grown and treated with H2O2 as described in Haimovitz-Friedman et al., 1994, J. Exp. Med. 180:525-535 and Verhij et al., 1996, Nature 380:75-79. Phorbol 12-myristate 13-acetate (PMA; Alexis Biochemicals Corp., San Diego, Calif.) was dissolved in dimethyl sulfoxide (DMSO) and added to cells for the duration of one hour. The final DMSO concentration was 0.03%. The cells were then rinsed with warm growth medium before being returned to the incubator for an additional 48 hours.
(§2) Cells were plated in growth medium at a density of 30-90 cells per square centimeter and irradiated 22 hours later. Each experimental condition was done in quintet or triplicate. Cells were irradiated at room temperature in Cs-137 Irradiator (Sheperd Mark-I, Model 68, SN 643) at a rate of 2.43-2.32 Gy/min. […] For determination of their red to green ratio, colonies were processed as described above. For determination of surviving fractions cells were stained with crystal violet and colonies containing 50 cells or more were counted with a dissecting microscope. The surviving fraction was defined as the ratio between the plating efficiencies of irradiated and non-irradiated cells and was calculated at each dose level according to Hall and Phill (1994, […] for the Radiologist, 4th Edition, J. Lippincott Co., Philadelphia).

[5] = test system: LoVo (human colon adenocarcinoma); test: Clonogenic survival (surviving fraction) of LoVo cells after radiation or chemotherapeutic agent; type: cell-based
Method: as §1, §2

[6] = test system: MCF-7 (human breast adenocarcinoma); test: Clonogenic survival (surviving fraction) of MCF-7 cells after radiation or chemotherapeutic agent; type: cell-based

bFGF: cytokine tested as inducer of acidic organelle formation
Fold Increase in Red: Green ([1]; MCF-7, bFGF 10 ng/ml for 48 hours): 2.23 ± 0.18 (n = 3) fold

CCCCCCCCCCCCCC(=O)O[C@@H]1[C@@H](C)[C@@]2(O)[C@@H](C=C(CO)C[C@]3(O)C(=O)C(C)=C[C@@H]23)[C@@H]2C(C)(C)[C@]12OC(C)=O [PMA, Phorbol 12-myristate 13-acetate]
Fold Increase in Red: Green ([1]; MCF-7, PMA 30 nM for 1 hour, rinsed, additional 48 hours): 1.7±0.3 fold and 1.7 ± 0.3 (n = 3) fold

CCN(CC)CCCC(C)Nc1ccnc2cc(Cl)ccc12 (stereo not drawn) [chloroquine]
acridine orange accumulation in the AVO [2]: inhibited acridine orange accumulation

Cn1cnc(N)c2ncnc1-2 [3-methyladenine]
fraction of cells containing AVO-EM [3]: 22%
red to green ratio ([1]; 3-methyladenine 5 mM, 48 hours following radiation with 10 Gy, without it 1.77±0.01, n=3): 1.15±0.01

CO[C@H]1C[C@@H]2CC[C@@H](C)[C@@](O)(O2)C(=O)C(=O)N2CCCC[C@H]2C(=O)O[C@H]([C@H](C)C[C@@H]2CC[C@@H](O)[C@H](OC)C2)CC(=O)[C@H](C)/C=C(\C)[C@@H](O)[C@@H](OC)C(=O)[C@H](C)C[C@H](C)/C=C/C=C/C=C/1C [Rapamycin, rapamycin]
Fold Increase in Red:Green 48 hrs ([1]; Table 21, MCF-7, 20 nM rapamycin): 1.96 fold
Fold Increase in Red:Green 48 hrs ([1]; Table 21, MCF-7, 50 nM rapamycin): 2.31 fold
Fold Increase in Red:Green 24 hrs ([1]; Table 22, Rapamycin 10 nM): 1.7 fold
Fold Increase in Red:Green 48 hrs ([1]; Table 22, Rapamycin 10 nM): 1.6 fold
Fold Increase in Red:Green 24 hrs ([1]; Table 22, Rapamycin 20 nM): 1.7 fold
Fold Increase in Red:Green 48 hrs ([1]; Table 22, Rapamycin 20 nM): 1.4 fold

COc1cccc2c1C(=O)c1c(O)c3c(c(O)c1C2=O)C[C@@](O)(C(=O)CO)C[C@@H]3O[C@H]1C[C@H](N)[C@H](O)[C@H](C)O1 [Adriamycin]
Surviving Fraction 100 nM Adriamycin ([4]; MCF-7, 100 nM Adriamycin alone (Salicilyhalamide 0 nM)): 0.88 ± 0.08
Surviving Fraction Without Bafilomycin ([5]; Adriamycin 50 nM alone): 0.84 ± 0.01
Surviving Fraction Without Bafilomycin ([5]; Adriamycin 100 nM alone): 0.77 ± 0.01
Surviving Fraction Without Bafilomycin ([5]; Adriamycin 150 nM alone): 0.47 ± 0.02
survival, Adriamycin 100 nM ([5]; Table 17, Adriamycin 100 nM alone, 48 hours): 0.94 ± 0.1
survival, column Adriamycin ([6]; Table 15, 100 nM adriamycin alone (Bafilomycin 0 nM)): 0.88 ± 0.08

CC/C(=C(\c1ccccc1)c1ccc(OCCN(C)C)cc1)c1ccccc1 [Tamoxifen]
Fold increase of Red:Green ([1]; Tamoxifen 2 × 10^−6 M): 1.6 fold
Fold increase of Red:Green ([1]; Tamoxifen 2 × 10^−6 M + Estradiol 10^−9 M): 1.33 fold
Fold increase of Red:Green ([1]; Tamoxifen 10^−6 M): 1.5 fold
Fold increase of Red:Green ([1]; Tamoxifen 10^−6 M + Estradiol 10^−9 M): 1.25 fold

CC/C=C\C=C/C(=O)N/C=C/C[C@H]1C[C@@H](O)[C@@H](C)C/C=C/Cc2cccc(O)c2C(=O)O1 [Salicylihalamide A]
decrease of survival of irradiated cells ([4]; 25 nM salicylihalamide A, 3 Gy): 30%
Surviving Fraction 0 Gy ([4]; Salicylihalamide A 12.5 nM): 1.14 ± 0.07
Surviving Fraction 3 Gy ([4]; Salicylihalamide A 12.5 nM, 3 Gy): 0.38 ± 0.03
Surviving Fraction 0 Gy ([4]; Salicylihalamide A 25 nM): 0.92 ± 0.08
Surviving Fraction 0 Gy ([4]; Salicylihalamide A 25 nM, listed as salicylihalamide A): did not significantly affect
Surviving Fraction 3 Gy ([4]; Salicylihalamide A 25 nM, 3 Gy): 0.32 ± 0.03
Surviving Fraction 0 Gy ([4]; Salicylihalamide A 50 nM): 0.72 ± 0.09
Surviving Fraction 3 Gy ([4]; Salicylihalamide A 50 nM, 3 Gy): 0.22 ± 0.04
Surviving Fraction 0 Gy ([4]; Salicylihalamide A 100 nM): 0.53 ± 0.03
Surviving Fraction 3 Gy ([4]; Salicylihalamide A 100 nM, 3 Gy): 0.11 ± 0.02
Surviving Fraction 100 nM Adriamycin ([4]; MCF-7, Salicilyhalamide 25 nM + 100 nM Adriamycin): 0.79 ± 0.05
Surviving Fraction ([4]; MCF-7, Salicilyhalamide 25 nM alone): 1.03 ± 0.03
Surviving Fraction 100 nM Adriamycin ([4]; MCF-7, Salicilyhalamide 50 nM + 100 nM Adriamycin): 0.66 ± 0.04
Surviving Fraction ([4]; MCF-7, Salicilyhalamide 50 nM alone, listed as Salicilyhalamide): 0.95 ± 0.01
Surviving Fraction ([4]; MCF-7, Salicilyhalamide 50 nM alone, listed as salicylihalamide A): minimal effect
Surviving Fraction 100 nM Adriamycin ([4]; MCF-7, Salicilyhalamide 100 nM + 100 nM Adriamycin): 0.57 ± 0.01
Surviving Fraction ([4]; MCF-7, Salicilyhalamide 100 nM alone): 0.78 ± 0.04
decrease of survival ([6]; 50 nM salicylihalamide A in combination with 100 nM Adriamycin): 25%

z-VAD-fmk
mean red to green fluorescence ratio ([1]; z-VAD-fmk 50 μM added 1 hour before irradiation, 10 Gy, 24 hours following irradiation): 2.5 ± 0.04
mean red to green fluorescence ratio ([1]; z-VAD-fmk 50 μM added 1 hour before, unirradiated, 24 hours): 1.4 ± 0.07

COc1cc([C@@H]2c3cc4c(cc3[C@@H](O[C@@H]3O[C@@H]5CO[C@@H](C)O[C@H]5[C@H](O)[C@H]3O)[C@H]3COC(=O)[C@H]23)OCO4)cc(OC)c1O [Etoposide]
cell survival (head of column empty) ([4]; Table 18, MCF-7, Etoposide 0.05 μg/ml alone): (0.79; 0.77) 0.78*
cell survival (head of column empty) ([5]; Table 19, Etoposide 0.05 μg/ml alone): 0.78 ± 0.05

C[C@]12CC[C@@H]3c4ccc(O)cc4CC[C@H]3[C@@H]1CC[C@@H]2O [Estradiol]
Fold increase of Red:Green ([1]; Estradiol 10^−9 M alone): 1 fold
inhibition of the effect of tamoxifen on appearance of acidic vesicular organelles ([1]; estradiol 10^−9 M with tamoxifen, Table 23): 50%
